Assay results from patent EP0551200A1, “Protein phosphatase inhibitors for use in therapy” (priority 1992, dated 1993).

Tested on: Egr-1 mRNA
Experiment: Northern blot analysis of Egr-1 mRNA induction in quiescent primary human fibroblasts
Format: cell-based
Procedure: Quiescent human fibroblasts were incubated with TNF (500 units/ml) (a) or OA (500 nM) (b) for 0, 30, 60 min after which total cellular RNA was extracted. Blots of RNA from these cells were hybridized to radiolabeled (10⁶ cpm/ml) Egr-1 cDNA probe. c, the blot in b was stripped and reprobed with c-jun cDNA. Note: Egr-1 mRNA probe was not completely stripped from the blot. The autoradiograph of the blot is presented. d, regularly maintained cells were incubated wither with no additions (control, 0 time) or with OA for 1, 3, 5, 7 h and Northern analysis was carried out with an IL-6 cDNA probe (ATCC, Rockville, MD, US).
10 µg of RNA was applied to each lane and subjected to Northern blot analysis using an Egr-1 specific cDNA probe [1.6 kb Bgl II fragment (Sukhatme et al, Cell 53, 37-48, 1988)]. The same blots were rehybridized with actin or GADPH cDNA for normalizing the amount of RNA loaded. The blots were dried and autoradiographed. • (A). Time course of okadaic acid-induced Egr-1 and c-jun messages in primary human fibroblasts. Quiescent human fibroblasts were induced with 1 µM of okadaic acid for the time periods indicated. […] Time course of okadaic acid-induced Egr-1 message in Balb/c 3T3 cells. Quiescent Balb/c 3T3 cells were induced with okadaic acid (0.5µM) for the times indicated. • (C). Concentration dependent induction of Egr-1 message by okadaic acid in Balb/c 3T3 cells. Quiescent Balb/c 3T3 cells were induced with the indicated concentrations of okadaic acid for 1 h. As controls, different concentrations of DMSO were included. These corresponded to the amounts present in 0.25 µM okadaic acid (0.025% dimethyl sulphoxide (DMSO)) 0.5 µM okadaic acid (0.05% DMSO) and 1 µM okadaic acid (0.1%). • (D). Concentration dependent and time course induction of Egr-1 message by calyculin A. Quiescent Balb/c 3T3 cells were induced with different concentrations of calyculin A for 1 h. Northern analysis of this dose-dependent induction by calyculin A is shown on the left panel of the figure. […] Northern analysis of this time course induction by calyculin A is shown in the right panel of the figure. The same blot was rehybridized with pCMV-fos (Curran et al, Oncogene 2, 79-84, 1987) and pCMV-jun (Rauscher et al, 1988) shown in the middle panel. The blot was dried and autoradiographed.
Cells were incubated with either 0.5 µM of okadaic acid or 10 µg/ml of cycloheximide as well as with 0.5 µM of okadaic acid and 10 µg/ml of cycloheximide for 1.5, 3 or 6 h. Cells were harvested, RNA isolated and subjected to Northern blot analysis. The blot was probed with Egr-1 or actin cDNA.
Quiescent primary human fibroblasts were incubated with okadaic acid (OA) or TPA for 1 or 3 h. The concentrations of OA and TPA were 0.5 µM and 120 ng/ml, respectively. The concentration of 1-(5-isoquinolinylsulfonyl)-2-methylpiperazine dihydrochloride (H7) and N-(2-guanidinoethyl)-5-isoquinolinesulphonamide dihydrochloride (HA1004) used was 25 µM. The cells were pre-treated for 15 min with H7 or HA1004 before they were induced by OA or TPA for 1 or 3 h. Cells were harvested, RNA was isolated and subjected to Northern blot analysis. The blot was probed with Egr-1 or GADPH cDNA. • (B). As a positive control, primary human fibroblasts were treated with TPA (30 ng/ml) for 1 h (1st lane). The fibroblasts were also pre-treated with H7 (25 µM) or HA1004 (25 µM) for 15 min before treatment with TPA for 1 h (2nd and 3rd lanes respectively). […] The blot was probed with Egr-1 or actin cDNA. • (C). Quiescent Balb/c 3T3 cells were incubated with OA, TPA or dBt-cAMP for 1 h or pre-treated with H7 (25 µM) or HA1004 (25 µM) for 15 min and then incubated with each of the agonists for 1 h. Cells were harvested, RNA was isolated and subjected to Northern blot analysis. […]

C=C1[C@@H](O)[C@@H]2O[C@]3(CC[C@H](/C=C/[C@@H](C)[C@@H]4CC(C)=C[C@@]5(O[C@H](C[C@@](C)(O)C(=O)O)CC[C@H]5O)O4)O3)CC[C@H]2O[C@@H]1[C@@H](O)C[C@H](C)[C@H]1O[C@@]2(CCCCO2)CC[C@H]1C [okadaic acid]
time for which the Egr-1 mRNA level is maintained (1 µM): up to 7 h | time of maximal induction of Egr-1 mRNA (1 µM): about 2 h | time to induction of Egr-1 mRNA (1 µM, Example 2): ≤ 1 h | fold induction at 1 µM (Homo sapiens, Fibroblast, read-out: Egr-1 mRNA level over control): 30 to 40 | time to induction of Egr-1 (OA 500 nM, Example 1): ≤ 30 min
